Assay results: ChEMBL document CHEMBL1154797, “Synthesis, anti-bacterial and anti-fungal activities of some novel Schiff bases containing 2,4-disubstituted thiazole ring” (2010)
In brackets after ≈: the same amount, converted by molar mass.

Tests used:
Candida albicans [1] = assay type: functional
Description: Antifungal activity against Candida albicans at MIC after 72 hrs by disk diffusion assay

Cryptococcus neoformans [2] = assay type: functional
Description: Antifungal activity against Cryptococcus neoformans at MIC after 72 hrs by disk diffusion assay

Aspergillus flavus [3] = assay type: functional
Description: Antifungal activity against Aspergillus flavus at MIC after 72 hrs by disk diffusion assay

Cryptococcus neoformans [4] = test: Antifungal activity against Cryptococcus neoformans; assay type: functional
Candida albicans [5] = test: Antifungal activity against Candida albicans; assay type: functional
Aspergillus flavus [6] = test: Antifungal activity against Aspergillus flavus; assay type: functional
Pseudomonas aeruginosa [7] = test: Antibacterial activity against Pseudomonas aeruginosa at MIC after 24 hrs by disk diffusion assay; assay type: functional
Pseudomonas aeruginosa [8] = test: Antibacterial activity against Pseudomonas aeruginosa; assay type: functional
Candida tropicalis [9] = test: Antifungal activity against Candida tropicalis; assay type: functional
Candida tropicalis [10] = assay type: functional
Description: Antifungal activity against Candida tropicalis at MIC after 72 hrs by disk diffusion assay

Vibrio cholerae [11] = test: Antibacterial activity against Vibrio cholerae at MIC after 24 hrs by disk diffusion assay; assay type: functional
Vibrio cholerae [12] = test: Antibacterial activity against Vibrio cholerae; assay type: functional
Staphylococcus aureus [13] = test: Antibacterial activity against Staphylococcus aureus at MIC after 24 hrs by disk diffusion assay; assay type: functional
Staphylococcus aureus [14] = test: Antibacterial activity against Staphylococcus aureus; assay type: functional
Klebsiella pneumoniae [15] = test: Antibacterial activity against Klebsiella pneumoniae at MIC after 24 hrs by disk diffusion assay; assay type: functional
Klebsiella pneumoniae [16] = test: Antibacterial activity against Klebsiella pneumoniae; assay type: functional
Salmonella enterica [17] = test: Antibacterial activity against Salmonella typhi at MIC after 24 hrs by disk diffusion assay; assay type: functional, Salmonella enterica subsp. enterica serovar Typhi
Salmonella enterica [18] = test: Antibacterial activity against Salmonella typhi; assay type: functional, Salmonella enterica subsp. enterica serovar Typhi

Row | Structure (SMILES) | diameter of the inhibition zone (DIZ) (Candida albicans [1]) [mm] | diameter of the inhibition zone (DIZ) (Cryptococcus neoformans [2]) [mm] | diameter of the inhibition zone (DIZ) (Aspergillus flavus [3]) [mm] | MIC (Cryptococcus neoformans [4]) [µg/mL] | MIC (Candida albicans [5]) [µg/mL] | MIC (Aspergillus flavus [6]) [µg/mL] | also measured
1 | COc1ccc(-c2csc(N/N=C/c3ccccc3)n2)cc1 | 13 | 14 | 13 | 12.5 (≈ 40.4 µM) | 12.5 (≈ 40.4 µM) | 12.5 (≈ 40.4 µM) | 
2 | COc1ccc(-c2csc(N/N=C/c3ccc(O)cc3O)n2)cc1 |  |  |  |  |  |  | diameter of the inhibition zone (DIZ) (Pseudomonas aeruginosa [7]): <10 mm; MIC (Pseudomonas aeruginosa [8]): 50 µg/mL (≈ 146 µM)
3 | Brc1ccc(-c2csc(N/N=C/c3ccccc3)n2)cc1 | 15 | 15 | 16 | 12.5 (≈ 34.9 µM) | 12.5 (≈ 34.9 µM) | 12.5 (≈ 34.9 µM) | MIC (Candida tropicalis [9]): 25 µg/mL (≈ 69.8 µM); diameter of the inhibition zone (DIZ) (Candida tropicalis [10]): 14 mm
4 | OC(/C(=N/Nc1nc(-c2ccc(Br)cc2)cs1)c1ccccc1)c1ccccc1 (stereo not given) | 19 | 21 | 17 | 6.25 (≈ 13.5 µM) | 6.25 (≈ 13.5 µM) | 6.25 (≈ 13.5 µM) | diameter of the inhibition zone (DIZ) (Vibrio cholerae [11]): 17 mm; MIC (Candida tropicalis [9]): 6.25 µg/mL (≈ 13.5 µM); MIC (Vibrio cholerae [12]): 12.5 µg/mL (≈ 26.9 µM); diameter of the inhibition zone (DIZ) (Candida tropicalis [10]): 16 mm; diameter of the inhibition zone (DIZ) (Staphylococcus aureus [13]): 17 mm; MIC (Staphylococcus aureus [14]): 12.5 µg/mL (≈ 26.9 µM)
5 | Brc1ccc(-c2csc(NN=C3CCCCC3)n2)cc1 | 17 | 16 | 16 | 12.5 (≈ 35.7 µM) | 12.5 (≈ 35.7 µM) | 12.5 (≈ 35.7 µM) | MIC (Candida tropicalis [9]): 12.5 µg/mL (≈ 35.7 µM); diameter of the inhibition zone (DIZ) (Candida tropicalis [10]): 14 mm
6 | COc1ccc(/C=N/Nc2nc(-c3ccc(OC)cc3)cs2)cc1 |  |  |  |  |  |  | diameter of the inhibition zone (DIZ) (Staphylococcus aureus [13]): <10 mm; MIC (Staphylococcus aureus [14]): 50 µg/mL (≈ 147 µM)
7 | COc1ccc(-c2csc(N/N=C/c3cc(OC)c(OC)c(OC)c3)n2)cc1 |  |  |  |  |  |  | diameter of the inhibition zone (DIZ) (Staphylococcus aureus [13]): <10 mm; MIC (Staphylococcus aureus [14]): 50 µg/mL (≈ 125 µM)
8 | COc1ccc(-c2csc(N/N=C/c3ccc(OC)c(OC)c3)n2)cc1 |  |  |  |  |  |  | diameter of the inhibition zone (DIZ) (Staphylococcus aureus [13]): <10 mm; MIC (Staphylococcus aureus [14]): 50 µg/mL (≈ 135 µM)
9 | COc1ccc(-c2csc(N/N=C/c3ccccc3O)n2)cc1 | 11 | 12 |  | 25 (≈ 76.8 µM) | 25 (≈ 76.8 µM) |  | MIC (Candida tropicalis [9]): 25 µg/mL (≈ 76.8 µM); diameter of the inhibition zone (DIZ) (Candida tropicalis [10]): 13 mm
10 | COc1ccc(-c2csc(N/N=C(\c3ccccc3)C(O)c3ccccc3)n2)cc1 (stereo not given) |  |  | 13 |  |  | 25 (≈ 60.2 µM) | diameter of the inhibition zone (DIZ) (Vibrio cholerae [11]): 16 mm; MIC (Vibrio cholerae [12]): 25 µg/mL (≈ 60.2 µM)
11 | Fc1ccccc1/C=N/Nc1nc(-c2ccc(Br)cc2)cs1 |  |  |  |  |  |  | diameter of the inhibition zone (DIZ) (Klebsiella pneumoniae [15]): <10 mm; MIC (Klebsiella pneumoniae [16]): 50 µg/mL (≈ 133 µM)
12 | Oc1ccccc1/C=N/Nc1nc(-c2ccc(Br)cc2)cs1 |  |  |  |  |  |  | diameter of the inhibition zone (DIZ) (Klebsiella pneumoniae [15]): <10 mm; MIC (Klebsiella pneumoniae [16]): 50 µg/mL (≈ 134 µM)
13 | Brc1ccc(-c2csc(N/N=C/c3c[nH]c4ccccc34)n2)cc1 |  | 13 |  | 25 (≈ 62.9 µM) |  |  | 
14 | Brc1ccc(-c2csc(NN=C3CCCC3)n2)cc1 | 16 | 14 | 15 | 12.5 (≈ 37.2 µM) | 12.5 (≈ 37.2 µM) | 12.5 (≈ 37.2 µM) | diameter of the inhibition zone (DIZ) (Vibrio cholerae [11]): 19 mm; MIC (Vibrio cholerae [12]): 6.25 µg/mL (≈ 18.6 µM)
15 | COc1ccc(-c2csc(NN=C3CCCC3)n2)cc1 | 17 | 18 | 18 | 12.5 (≈ 43.5 µM) | 12.5 (≈ 43.5 µM) | 12.5 (≈ 43.5 µM) | 
16 | O=C(O)c1cn(C2CC2)c2cc(N3CCNCC3)c(F)cc2c1=O [CIPROFLOXACIN] |  |  |  |  |  |  | diameter of the inhibition zone (DIZ) (Klebsiella pneumoniae [15]): 23 mm; diameter of the inhibition zone (DIZ) (Staphylococcus aureus [13]): 25 mm; diameter of the inhibition zone (DIZ) (Salmonella enterica [17]): 18 mm; MIC (Klebsiella pneumoniae [16]): 6.25 µg/mL (≈ 18.9 µM); MIC (Salmonella enterica [18]): 6.25 µg/mL (≈ 18.9 µM)
17 | OC(Cn1cncn1)(Cn1cncn1)c1ccc(F)cc1F [FLUCONAZOLE] | 22 | 22 | 19 | 6.25 (≈ 20.4 µM) | 6.25 (≈ 20.4 µM) | 6.25 (≈ 20.4 µM) | MIC (Candida tropicalis [9]): 6.25 µg/mL (≈ 20.4 µM); diameter of the inhibition zone (DIZ) (Candida tropicalis [10]): 20 mm
